For 14 compounds, IC50 and Ki results are on record in ChEMBL document CHEMBL5518158, “Recent advances in triazoles as tyrosinase inhibitors” (Eur J Med Chem, 2023).

A value given as a limit tells only on which side of the number the result lay.

Common to all, as to type: protein assay
Experiment [1] has as its target T1, Mushroom tyrosinase (Agaricus bisporus, UniProt O42713+Q00024+C7FF04+C7FF05). Description: Inhibition of mushroom tyrosinase by spectrophotometric method.
Experiment [2] addresses T1, Mushroom tyrosinase. The experiment is described as follows: Inhibition of mushroom tyrosinase using L-DOPA as substrate measured for 15 mins by spectrophotometer analysis.
In experiment [3] the target is T1, Mushroom tyrosinase. The experiment is described as follows: Inhibition of mushroom tyrosinase using L-DOPA as substrate pre-treated for 20 mins followed by substrate addition measured for 15 mins by absorbance based analysis.
Experiment [4] concerns the target T1, Mushroom tyrosinase. The experiment is described as follows: Binding affinity to mushroom tyrosinase assessed as inhibition constant.
For experiment [5], the target named is T1, Mushroom tyrosinase. The experiment is described as follows: Inhibition of mushroom tyrosinase using L-DOPA as substrate incubated for 15 mins by spectrophotometric analysis.
Experiment [6] addresses T1, Mushroom tyrosinase. The experiment is described as follows: Inhibition of mushroom tyrosinase using L-DOPA as substrate incubated for 20 mins spectrophotometric analysis.
Experiment [7] has as its target T1, Mushroom tyrosinase. The experiment is described as follows: Binding affinity to mushroom tyrosinase assessed as binding constant by fluorescence spectrophotometry.
In experiment [8] the target is T1, Mushroom tyrosinase. Description: Inhibition of mushroom tyrosinase using L-DOPA as substrate preincubated for 10 mins.
The target of experiment [9] is T1, Mushroom tyrosinase. Description: Inhibition of mushroom tyrosinase incubated for 10 mins by spectrophotometric analysis.
Experiment [10] addresses T1, Mushroom tyrosinase. The experiment is described as follows: Inhibition of mushroom tyrosinase using L-tyr as substrate.
In experiment [11] the target is T1, Mushroom tyrosinase. Description: Inhibition of mushroom tyrosinase using L-tyrosine as substrate incubated for 20 mins by spectrophotometric analysis.

`CCCCCn1nc(-c2ccccc2)n(CC(=O)NNC(=O)Nc2cccc(C(F)(F)F)c2)c1=O`: the half-maximal inhibitory concentration (IC50) (in general, the concentration needed to halve the response being measured) against Mushroom tyrosinase [1] worked out at 1 nM.

On Mushroom tyrosinase [2], `COc1ccc(NC(=O)Cn2cc(COc3ccc(/C=N/NC(N)=S)cc3)nn2)cc1` had an IC50 of 250 nM.

For `Oc1ccc2c(c1)OCO2`, the IC50 on Mushroom tyrosinase [3] came out at 6700 nM.

On to `CCCCCn1nc(-c2ccccc2)n(CC(=O)NNC(=O)Nc2cc(C(F)(F)F)cc(C(F)(F)F)c2)c1=O`, for which, on Mushroom tyrosinase [1], the half-inhibitory concentration (IC50) was 1 nM.

For `Cc1cc(C=C2C(=O)NC(=S)NC2=O)c(OCc2cn(Cc3ccc(F)cc3)nn2)cc1Br`, the Ki (usually a dissociation constant, usually derived from enzyme kinetics or from competition with a known ligand) at Mushroom tyrosinase [4] came to 60270 nM. The compound also yielded an IC50 against Mushroom tyrosinase [5] of 24600 nM.

The compound `O=c1cc(Cn2cc(COc3ccc4ccccc4c3)nn2)occ1O` returned an IC50 on Mushroom tyrosinase [6] of 300 nM.

With `O=C(CSc1nnc(-c2ccccc2F)n1-c1ccc(F)cc1)Nc1ccc(F)cc1`, at Mushroom tyrosinase [7], the Ki worked out at 18 nM. On Mushroom tyrosinase [8], the IC50 is 98 nM.

Turning to `O=c1cc(Cn2cc(COc3ccc([N+](=O)[O-])cc3)nn2)occ1O`, the half-maximal inhibitory concentration (IC50) at Mushroom tyrosinase [9] amounted to 520 nM.

In turn, `CCCCCn1nc(-c2ccccc2)n(CC(=O)NNC(=O)Nc2ccccc2C(F)(F)F)c1=O` gave an IC50 on Mushroom tyrosinase [1] of 1 nM. Further, the Ki at Mushroom tyrosinase [4] worked out at 10 nM.

In turn, `Cc1c(NC(=O)Cn2cc(COc3ccc(/C=N/NC(N)=S)cc3)nn2)cccc1[N+](=O)[O-]` gave an IC50 against Mushroom tyrosinase [2] of 120 nM.

For `COc1ccc(C=O)cc1O` [ISOVANILLIN], the concentration for half-maximal inhibition (IC50) against Mushroom tyrosinase [10] was > 500000 nM.

At Mushroom tyrosinase [6], `O=c1cc(Cn2cc(COc3cccc4ccccc34)nn2)occ1O` returned an IC50 of 60 nM.

For `C/C=C/c1ccc(O)c(OC)c1`, the IC50 against Mushroom tyrosinase [11] was 33330 nM.

For the compound `CCCCCn1nc(-c2ccccc2)n(CC(=O)NNC(=S)Nc2ccccc2C(F)(F)F)c1=O`, the inhibition constant (Ki) on Mushroom tyrosinase [4] stood at 100 nM.
